{
  "source": "patent US8217074B2",
  "about": "“Use of sargachromenol” (Catholic University Industry Academic Cooperation Foundation, priority 2007, dated 2012)",
  "key": {"[1]": {"test_system": "UVB irradiated human keratinocytes HaCaT", "test": "MTT cell viability after sargachromenol pre-treatment and UVB irradiation", "type": "cell-based", "protocol": "Synergic apoptosis effect by UV and sargachromenol on human keratinocytes was investigated. HaCaT cells were cultured in the same manner as in Example 2-1 and transferred to a 6-well plate, at 3×10^5 cells/well. After about 12 hours of serum starvation, each well was pre-treated with 0, 0.5, 1, 2, 5 or 10 μg/mL sargachromenol, and UVB was irradiated at 150 J/m^2 (FS24T12/UVB/HO, Voltare Co., Fairfield, Conn., USA, 290-320 nm). 18 hours later, without removing the medium, each well was treated with 5 mg/mL MTT reagent at a concentration of 20 μL/100 μL, and incubated for 2 hours. Subsequently, after removing the medium, 150 μL of DMSO was added to each well and cell viability was analyzed by measuring absorbance at 540 nm using a spectrophotometer. Cells non-treated with sargachromenol were used as control group. Cell viability was calculated as relative value of that of the control group (100%)."}, "[2]": {"test_system": "caspase-8, caspase-9 and caspase-3 in human keratinocytes HaCaT", "test": "Western blot of apoptosis-related factors after pre-treatment and UVB irradiation", "type": "cell-based", "protocol": "In Example 4, it was confirmed that UV further enhances the apoptosis of human keratinocytes by sargachromenol. Thus, it was investigated whether UV has effect on sargachromenol-induced apoptosis-related factors. First, human keratinocytes HaCaT cells were cultured in the same manner as in Example 2-1 and transferred to a 10 cm plate, at 2×10^6 cells/well. After about 18 hours of serum starvation, each well was pre-treated with 0, 2 or […] sargachromenol for 30 minutes and UVB was irradiated. 8 hours later, the cells were lysed using RIPA buffer [12 mM EDTA, 137 mM NaCl, 20 mM Tris-HCl (pH 8.0), 1 mM Na3VO4 (Sigma-Aldrich, USA) 10 mM NaF (Sigma), 1 mM PMSF (Sigma), 1% Triton X-100, 10% glycerol and protease inhibitor cocktail (Roche, Germany)]. Electrophoresis (SDS-PAGE) was carried out after determination of protein concentration. Western blot analysis was carried out on the isolated protein as in Example 3. Cells not treated with sargachromenol were used as control group."}, "[3]": {"test_system": "human keratinocytes HaCaT", "test": "Cytotoxicity analysis by MTT cell viability assay", "type": "cell-based", "conditions": "0, 1, 2, 5 or 10 μg/mL, 24 hours", "protocol": "(§1) Cytotoxicity effect of the sargachromenol of the present invention isolated and purified in Example 1 on human keratinocytes HaCaT was investigated by MTT cell viability analysis.\n(§2) HaCaT cells were obtained from Professor N. Fusenig of the German Cancer Research Institute. The HaCaT cells were incubated in DMEM medium containing 10% FBS (Hyclone), 100 unit/mL penicillin and 100 μg/mL streptomycin at 37° C., in a 5% CO2 incubator. During the incubation, cell viability and number of cells were measured periodically using a hemacytometer (Neubauer, Germany) by the trypan blue exclusion method. In all experiments, initial cell viability was maintained over 95%.\n(§3) The cultured HaCaT cells were transferred to a 96-well plate, with 5×10^4 cells/well, and incubated at 37° C. in a 5% CO2 incubator for 24 hours. Then, the cultured HaCaT cells were treated with 0, 1, 2, 5 or 10 μg/mL sargachromenol, and further incubated at 37° C. in a 5% CO2 incubator for 24 hours. Then, without removing the medium, each well was treated with 5 mg/mL MTT reagent at a concentration of 20 μL/100 μL, and incubated for 2 hours. Subsequently, after removing the medium, 150 μL of DMSO was added to each well and cell viability was analyzed by measuring absorbance at 540 nm using an ELISA reader (Molecular Devices, USA). Cells non-treated with sargachromenol were used as control group. Cell viability was calculated as relative value of that of the control group (100%)."}, "[4]": {"test": "Cytotoxicity analysis by MTT cell viability assay", "type": "cell-based, human", "conditions": "human, HaCaT keratinocytes", "protocol": "as §1, §2, §3"}, "[5]": {"test_system": "human keratinocytes HaCaT", "test": "Apoptosis by FACS analysis (Propidium Iodide staining)", "type": "cell-based", "conditions": "24 hours", "protocol": "Apoptosis effect of the sargachromenol of the present invention on human keratinocytes was investigated by FACS and TUNEL analysis. First, for FACS analysis, HaCaT cells were cultured in the same manner as in Example 2-1, transferred to a 10 cm plate, with 2×10^6 cells/well, and incubated at 37° C. in a 5% CO2 incubator for 24 hours. After treating the cells with 0, 1, 2 or 5 μg/mL sargachromenol, they were incubated at 37° C. in a 5% CO2 incubator for 24 hours. Then, the cells were released from the plate using trypsin, and fixed using 4% paraformaldehyde. The fixed cells were treated with 70% alcohol to increase cell membrane permeability. Then, the cells were stained with Propidium Iodide (PI) solution for 30 minutes, and subjected to FACS analysis. Cells treated with DMSO only and not with sargachromenol were used as control group."}, "[6]": {"test_system": "caspase-8 and caspase-3 in human keratinocytes HaCaT", "test": "Western blot of apoptosis-related factors", "type": "cell-based", "protocol": "Human keratinocytes HaCaT cells were cultured in the same manner as in Example 2-1 and transferred to a 10 cm plate, at 2×10^6 cells/well. After about 18 hours of serum starvation, the cells were treated with 0, 1, 2 or 5 μg/mL sargachromenol. 18 hours later, the cells were lysed using RIPA buffer [12 mM EDTA, 137 mM NaCl, 20 mM Tris-HCl (pH 8.0), 1 mM Na3VO4 (Sigma-Aldrich, USA) 10 mM NaF (Sigma), 1 mM PMSF (Sigma), 1% Triton X-100, 10% glycerol and protease inhibitor cocktail (Roche, Germany)]. The lysed cells were put in a 1.5 mL tube and, after pipetting, put on ice for 20 minutes. The lysate was centrifuged at 14000 rpm for 20 minutes, and protein was isolated from the supernatant. Sample concentration of the isolated protein was determined using a BCA protein analysis kit (Pierce, Rockford, Ill.) and electrophoresis (SDS-PAGE) was carried out. Western blot analysis was carried out on the protein isolated by the electrophoresis. Western blot analysis was carried out as follows. After electrophoresis of the sample, the protein was transferred from the gel to a polyvinylidene fluoride membrane (Pall Corporation). Then, after blocking the membrane at room temperature for 2 hours using 3% BSA solution (Amresco, USA), it was treated with primary antibodies and reaction was carried out at room temperature for 2 hours. The primary antibodies were anti-caspase-3 antibody, anti-caspase-8 antibody and anti-actin antibody (Cell Signaling Technology, Beverly, Mass.), which are antibodies associated in apoptosis-related signaling. After reaction with the primary antibodies, it was washed with TBS for about 15 minutes and further reacted for 45 minutes by treating with secondary antibodies. The secondary antibodies were goat anti-mouse antibody and goat anti-rabbit antibody (Zymed, San Francisco, USA). Then, after washing sufficiently with TBS for over 30 minutes, protein was identified using an ECL detection kit (Santa Cruz). Cells not treated with sargachromenol were used as control group."}, "nerve cell": {"test_system": "nerve cell", "conditions": "Chi Kwan Tsang et al, Neuroscience, 2005; cited from earlier work"}, "[7]": {"test_system": "human keratinocytes HaCaT", "test": "Apoptosis by TUNEL analysis", "type": "cell-based", "conditions": "increasing concentration, 24 hours", "protocol": "For TUNEL analysis, the cells were incubated for 24 hours as above, and transferred to a chamber slide using an ApopTag® fluorescein in situ apoptosis detection kit. After adhering the cells to the bottom well, they were washed with pH 7.4 PBS solution. The chamber slide was immersed in PBS solution of 4% paraformaldehyde for 30 minutes at room temperature in order to completely fix the cells. And, the cells were washed with PBS and immersed in blocking solution (1% H2O2 in methanol) for 30 minutes at room temperature in order to inhibit the action of endogenous peroxidase. Then, the cells were washed with PBS and immersed in 0.1% sodium citrate solution containing 0.1% Triton X-100 at 4° C. for 2 minutes in order to make the cells permeable. For labeling, the cells were washed with PBS two more times and diluted TUNEL reaction mixture was added to the slide. After incubating in a 37° C. humidified chamber for 60 minutes, the slide was washed with PBS. Then, the slide was further incubated in TBS solution containing 1% BSA and 5% FBS for 20 minutes. After adding anti-fluorescein antibody conjugated with horse-radish peroxidase to the culture medium and reacting at 37° C. for 1 hour, the slide was washed with PBS and DAB-matrix solution was added. Hematoxylin solution was added for counter staining. […]"}},
  "data": [
    {"smiles": "CC(C)=CCC/C(=C/CC/C(C)=C/CCC1(C)C=Cc2cc(O)cc(C)c2O1)C(=O)O", "note": "(centres unmarked) [sargachromenol]", "values": [
      {"measurement": "viability at 1 µg/mL", "setting": "[1]; Homo sapiens, HaCaT, light or radiation study, 1 μg/mL pre-treatment, UVB 150 J/m^2, 18 hours later", "result": "~25", "unit": "%"},
      {"measurement": "apoptosis versus cells without UV", "setting": "[1]; pre-treated with sargachromenol and irradiated with UV, compared with same condition without UV", "result": "much more increased apoptosis"},
      {"measurement": "activation of caspase", "setting": "[2]; 2 or 5 μg/mL sargachromenol only, no UVB, 8 hours", "result": "activation of caspase was not observed"},
      {"measurement": "cleaved caspases", "setting": "[2]; pre-treated with sargachromenol and irradiated with UVB, 8 hour later", "result": "cleaved caspase-8, caspase-9 and caspase-3 were observed"},
      {"measurement": "cell viability, concentration dependence", "setting": "[3]", "result": "cell viability decreased as the concentration of sargachromenol increased"},
      {"measurement": "viability at 24 h, 5 μg/mL", "setting": "[4]; 5 μg/mL sargachromenol only, without UV irradiation", "result": "≥ 40", "unit": "%"},
      {"measurement": "cytotoxicity at 24 h, 5 μg/mL", "setting": "[4]; 5 μg/mL sargachromenol, 24 hours, relative to control group (100%), no UV, read-out: reduction of cell viability", "result": 40, "unit": "%"},
      {"measurement": "apoptosis effect, concentration comparison (FACS)", "setting": "[5]; 5 μg/mL versus 1 μg/mL", "result": "better at treatment with 5 μg/mL than 1 μg/mL"},
      {"measurement": "apoptosis effect versus control group (FACS)", "setting": "[5]; 1, 2 or 5 μg/mL, control DMSO only", "result": "superior in the cells treated with sargachromenol than in the control group"},
      {"measurement": "cleavage of caspase-8 and caspase-3", "setting": "[6]; 0, 1, 2 or 5 μg/mL, higher concentration, no UV", "result": "caspase-8 and caspase-3 were cleaved"},
      {"measurement": "quantity of cleaved protein", "setting": "[6]; 0, 1, 2 or 5 μg/mL, no UV", "result": "increased in a concentration-dependent manner"},
      {"measurement": "activation of caspase", "setting": "[6]; 5 μg/mL sargachromenol only, 18 hours later", "result": "Activation of caspase was observed"},
      {"measurement": "NGF (nerve growth factor)-dependent nerve cell growth promoting activity", "setting": "nerve cell", "result": "reported to have NGF (nerve growth factor)-dependent nerve cell growth promoting activity"},
      {"measurement": "number of TUNEL-positive (dead) cells", "setting": "[7]", "result": "increased as the concentration of the sargachromenol of the present invention increased"}
    ]}
  ]
}
